Laboratory results reported in patent US20080287374A1, “BREAST CANCER-RESISTANT PROTEIN INHIBITOR” (KABUSHIKI KAISHA YAKULT HONSHA, priority 2003, published 2008).
Values after ≈ are worked out from the molar mass of the structure shown.

Columns and labels:
A549/SN-38-4 cell line = assay: Effect of flavonoid in overcoming anticancer drug (SN-38) resistance of A549/SN-38 cell line; format: cell-based, human; settings: concentration of flavonoid for 50% reduction of relative resistance value to SN-38, A549/SN-38-4, 48 hours; for EC50: Homo sapiens
Procedure: The A549 cell line or the A549/SN-38-4 cell line was suspended in 10% FBS/Ham's F-12, and the resultant suspension was inoculated into a 96-well microplate, followed by culturing at 5% CO2 and 37° C. overnight (2×10^3 cells/50 μL/well). Thereafter, a solution of a flavonoid and SN-38 in 10% FBS/Ham's F-12 (25 μL) was added to each of the wells, followed by culturing at 5% CO2 and 37° C. for 48 hours. After completion of culturing, the number of viable cells was counted by use of TetraColor ONE according to the attached instruction manual.

MES-SA/Dx5 cell line = assay: Effect of flavonoid on multidrug (paclitaxel) resistance of MES-SA/Dx5 cell line; format: cell-based, human; settings: concentration of flavonoid for 50% reduction of relative resistance value to paclitaxel, MES-SA/Dx5 (P-glycoprotein overexpression), 48 hours; for EC50: Homo sapiens, read-out: Resistance overcoming effect EC50
Procedure: Human uterine cancer MES-SA cell line or MES-SA/Dx5 cell line which had acquired multidrug resistance through overexpression of P-glycoprotein (Cancer Res. 45, 4091-4096 (1985)) was suspended in 10% FBS/DMEM, and the resultant suspension was inoculated into a 96-well microplate, followed by culturing at 5% CO2 and 37° C. overnight (3×10^3 cells/50 μL/well). Thereafter, a solution of a flavonoid and paclitaxel in 10% FBS/DMEM (25 μL) was added to each of the wells, followed by culturing at 5% CO2 and 37° C. for 48 hours. After completion of culturing, the number of viable cells was counted by use of TetraColor ONE according to the attached instruction manual.

COc1cc(O)c2c(=O)cc(-c3ccc(O)cc3)oc2c1 [Compound 1-1, 5,4′-Dihydroxy-7-methoxyflavone]
EC50 (A549/SN-38-4 cell line): 0.017 µg/mL (≈ 0.0598 µM) | EC50 (MES-SA/Dx5 cell line): > 1 µg/mL

COc1cc(-c2cc(=O)c3c(O)cc(O)cc3o2)cc(OC)c1OC [Compound 1-2, 5,7-Dihydroxy-3′,4′,5′-trimethoxyflavone]
EC50 (A549/SN-38-4 cell line): 0.048 µg/mL (≈ 0.139 µM) | EC50 (MES-SA/Dx5 cell line): > 1 µg/mL

O=c1cc(-c2ccccc2)oc2cc(O)cc(O)c12 [Compound 1-3, 5,7-Dihydroxyflavone]
EC50 (A549/SN-38-4 cell line): 0.1 µg/mL (≈ 0.393 µM) | EC50 (MES-SA/Dx5 cell line): > 1 µg/mL

COc1ccc(-c2cc(=O)c3ccccc3o2)cc1OC [Compound 1-4, 3′,4′-Dimethoxyflavone]
EC50 (A549/SN-38-4 cell line): 0.03 µg/mL (≈ 0.106 µM) | EC50 (MES-SA/Dx5 cell line): > 1 µg/mL

COc1cc(N)c(-c2cc(=O)c3c(OC)c(OC)c(OC)c(OC)c3o2)cc1OC [Compound 1-5, 2′-Amino-4′,5,5′,6,7,8-hexamethoxyflavone]
EC50 (A549/SN-38-4 cell line): 0.081 µg/mL (≈ 0.194 µM) | EC50 (MES-SA/Dx5 cell line): > 1 µg/mL

COc1ccc(-c2cc(=O)c3c(O)c(OC)c(OC)cc3o2)cc1O [Compound 1-6, 3′,5-Dihydroxy-4′,6,7-trimethoxyflavone]
EC50 (A549/SN-38-4 cell line): 0.017 µg/mL (≈ 0.0494 µM) | EC50 (MES-SA/Dx5 cell line): > 1 µg/mL

O=c1c(O)c(-c2ccc(O)cc2)oc2cc(O)cc(O)c12 [Compound 1-7, 3,4′,5,7-Tetrahydroxyflavone]
EC50 (A549/SN-38-4 cell line): 0.13 µg/mL (≈ 0.454 µM) | EC50 (MES-SA/Dx5 cell line): > 1 µg/mL

O=c1cc(-c2ccc(O)c(O)c2)oc2cc(O)cc(O)c12 [Compound 1-8, 3′,4′,5,7-Tetrahydroxyflavone]
EC50 (A549/SN-38-4 cell line): 0.46 µg/mL (≈ 1.61 µM) | EC50 (MES-SA/Dx5 cell line): > 1 µg/mL

O=c1cc(-c2ccc(O)cc2)oc2cc(O)cc(O)c12 [Compound 1-9, 4′,5,7-Trihydroxyflavone]
EC50 (A549/SN-38-4 cell line): 0.12 µg/mL (≈ 0.444 µM) | EC50 (MES-SA/Dx5 cell line): > 1 µg/mL

O=c1cc(-c2ccc(O)cc2)oc2cc(OC3O[C@H](CO)[C@@H](O)[C@H](O)[C@H]3O)cc(O)c12 (some centres unmarked) [Compound 1-10, 4′,5-Dihydroxyflavone-7-glucoside]
Resistance overcoming effect EC50 (A549/SN-38-4 cell line): 0.17 µg/mL | Resistance overcoming effect EC50 (MES-SA/Dx5 cell line): >1.0 µg/mL

COc1cc(-c2oc3cc(O)cc(O)c3c(=O)c2O)ccc1O [Compound 1-11, 3,4′,5,7-Tetrahydroxy-3′-methoxyflavone]
EC50 (A549/SN-38-4 cell line): 0.16 µg/mL (≈ 0.506 µM) | EC50 (MES-SA/Dx5 cell line): > 1 µg/mL

COc1cc2oc(-c3ccccc3)cc(=O)c2c(O)c1O [Compound 1-12, 5,6-Dihydroxy-7-methoxyflavone]
EC50 (A549/SN-38-4 cell line): 0.074 µg/mL (≈ 0.26 µM) | EC50 (MES-SA/Dx5 cell line): > 1 µg/mL

COc1ccc(-c2cc(=O)c3c(OC)c(OC)c(OC)cc3o2)cc1O [Compound 1-13, 3′-Hydroxy-4′,5,6,7-tetramethoxyflavone]
EC50 (A549/SN-38-4 cell line): 0.11 µg/mL (≈ 0.307 µM) | EC50 (MES-SA/Dx5 cell line): > 1 µg/mL

COc1ccc(-c2cc(=O)c3cc(OC)ccc3o2)c(OC)c1 [Compound 1-16, 2′,4′,6-Trimethoxyflavone]
EC50 (A549/SN-38-4 cell line): 0.098 µg/mL (≈ 0.314 µM) | EC50 (MES-SA/Dx5 cell line): > 1 µg/mL

COc1ccc(-c2oc3ccccc3c(=O)c2OC)cc1 [Compound 1-17, 3,4′-Dimethoxyflavone]
EC50 (A549/SN-38-4 cell line): 0.06 µg/mL (≈ 0.213 µM) | EC50 (MES-SA/Dx5 cell line): > 1 µg/mL

Cc1ccc(-c2cc(=O)c3cc(Cl)cc(Cl)c3o2)cc1 [Compound 1-18, 6,8-Dichloro-4′-methylflavone]
EC50 (A549/SN-38-4 cell line): 0.14 µg/mL (≈ 0.459 µM) | EC50 (MES-SA/Dx5 cell line): > 1 µg/mL

COc1cc2oc(-c3ccc(O)cc3)cc(=O)c2c(O)c1OC [Compound 1-19, 5,4′-Dihydroxy-6,7-dimethoxyflavone]
EC50 (A549/SN-38-4 cell line): 0.015 µg/mL (≈ 0.0477 µM) | EC50 (MES-SA/Dx5 cell line): > 1 µg/mL

COc1cc(-c2cc(=O)c3c(OC)c(OC)c(OC)c(OC)c3o2)c([N+](=O)[O-])cc1OC [Compound 1-20, 2′-Nitro-4′,5,5′,6,7,8-hexamethoxyflavone]
EC50 (A549/SN-38-4 cell line): 0.75 µg/mL (≈ 1.68 µM) | EC50 (MES-SA/Dx5 cell line): > 1 µg/mL

COc1cccc(-c2cc(=O)c3cc(OC)ccc3o2)c1 [Compound 1-21, 3′,6-Dimethoxyflavone]
EC50 (A549/SN-38-4 cell line): 0.52 µg/mL (≈ 1.84 µM) | EC50 (MES-SA/Dx5 cell line): > 1 µg/mL

COc1cc(O)c2c(=O)c(OC)c(-c3ccc(O)c(OC)c3)oc2c1 [Compound 1-22, 4′,5-Dihydroxy-3,3′,7-trimethoxyflavone]
EC50 (A549/SN-38-4 cell line): 0.046 µg/mL (≈ 0.134 µM)

COc1cc(O)c2c(=O)cc(-c3ccc(OC)c(OC)c3)oc2c1 [Compound 1-23, 5-Hydroxy-3′,4′,7-trimethoxyflavone]
EC50 (A549/SN-38-4 cell line): 0.007 µg/mL (≈ 0.0213 µM)

COc1ccc(-c2oc3c(OC)c(OC)c(OC)c(OC)c3c(=O)c2OC)cc1OC [Compound 1-24, 3,3′,4′,5,6,7,8-Heptamethoxyflavone]
EC50 (A549/SN-38-4 cell line): 0.054 µg/mL (≈ 0.125 µM)

COc1ccc(-c2cc(=O)c3c(OC)c(OC)c(OC)cc3o2)cc1OC [Compound 1-25, 3′,4′,5,6,7-Pentamethoxyflavone]
EC50 (A549/SN-38-4 cell line): 0.53 µg/mL (≈ 1.42 µM)

COc1cc2oc(-c3ccc(OC4O[C@H](CO)[C@@H](O)[C@H](O)[C@H]4O)cc3)cc(=O)c2c(O)c1OC (some centres unmarked) [Compound 1-26, 5-Hydroxy-6,7-dimethoxyflavone-4′-glucoside]
Resistance overcoming effect EC50 (A549/SN-38-4 cell line): 0.14 µg/mL

COc1cc(O)c2c(=O)cc(-c3ccc(OC4O[C@H](CO)[C@@H](O)[C@H](O)[C@H]4O)cc3)oc2c1 (some centres unmarked) [Compound 1-27, 5-Hydroxy-7-methoxyflavone-4′-glucoside]
Resistance overcoming effect EC50 (A549/SN-38-4 cell line): 0.042 µg/mL

CC(C)=CCc1c(-c2ccc(O)cc2O)oc2c3c(cc(O)c2c1=O)OC(C)(C)C=C3 [Compound 1-28, 4H,8H-Benzo[1,2-b:3,4-b′]dipyran-4-one,2-(2,4-dihydroxyphenyl)-5-hydroxy-8,8-dimethyl-3-(3-methyl-2-butenyl)]
Resistance overcoming effect EC50 (A549/SN-38-4 cell line): 2.0 µg/mL

COc1cc2oc(-c3ccc(O)cc3O)c(CC=C(C)C)c(=O)c2c(O)c1C=CC(C)C [Compound 1-29, 2′,4′,5-Trihydroxy-7-methoxy-6-(3-methyl-1-butenyl)-3-(3-methyl-2-butenyl)-flavone]
EC50 (A549/SN-38-4 cell line): 0.23 µg/mL (≈ 0.527 µM)

COc1ccc(C2CC(=O)c3c(O)cc(O)cc3O2)cc1O (centres unmarked) [Compound 2-1, 3′,5,7-Trihydroxy-4′-methoxyflavanone]
EC50 (A549/SN-38-4 cell line): 0.15 µg/mL (≈ 0.496 µM) | EC50 (MES-SA/Dx5 cell line): > 1 µg/mL

COc1cc(O)c2c(c1)OC(c1ccc(O)cc1)CC2=O (centres unmarked) [Compound 2-2, 4′,5-Dihydroxy-7-methoxyflavanone]
EC50 (A549/SN-38-4 cell line): 0.48 µg/mL (≈ 1.68 µM) | EC50 (MES-SA/Dx5 cell line): > 1 µg/mL

CC(C)=CCc1c2c(c(O)c3c1OC(c1ccc(O)cc1)CC3=O)C=CC(C)(C)O2 (centres unmarked) [Compound 2-3, 2H,6H-Benzo[1,2-b:5,4-b′]dipyran-6-one,7,8-dihydro-5-hydroxy-8-(4-hydroxyphenyl)-2,2-dimethyl-10-(3-methyl-2-butenyl)]
Resistance overcoming effect EC50 (A549/SN-38-4 cell line): 0.067 µg/mL

COc1cc(O)c(C(=O)/C=C/c2ccc(O)cc2)c(OC)c1 [Compound 3-1, 2′,4-Dihydroxy-4′,6′-dimethoxychalcone]
EC50 (A549/SN-38-4 cell line): 0.04 µg/mL (≈ 0.133 µM) | EC50 (MES-SA/Dx5 cell line): > 1 µg/mL

COc1ccc(/C=C/C(=O)c2ccccc2)cc1OC [Compound 3-2, 3,4-Dimethoxychalcone]
EC50 (A549/SN-38-4 cell line): 0.23 µg/mL (≈ 0.857 µM) | EC50 (MES-SA/Dx5 cell line): > 1 µg/mL

COc1ccc(/C=C/C(=O)c2ccccc2O)cc1OC [Compound 3-3, 2′-Hydroxy-3,4-dimethoxychalcone]
EC50 (A549/SN-38-4 cell line): 0.16 µg/mL (≈ 0.563 µM) | EC50 (MES-SA/Dx5 cell line): > 1 µg/mL

CCOc1cc(O)c(C(=O)/C=C/c2ccc(OCC)c(OCC)c2)c(OCC)c1 [Compound 3-4, 2′-Hydroxy-3,4,4′,6′-tetraethoxychalcone]
EC50 (A549/SN-38-4 cell line): 0.023 µg/mL (≈ 0.0574 µM) | EC50 (MES-SA/Dx5 cell line): > 1 µg/mL

COc1cc(O)c(C(=O)/C=C/c2cc(OC)c(OC)cc2OC)c(OC)c1 [Compound 3-6, 2′-Hydroxy-2,4,4′,5,6′-pentamethoxychalcone]
EC50 (A549/SN-38-4 cell line): 0.0074 µg/mL (≈ 0.0198 µM) | EC50 (MES-SA/Dx5 cell line): > 1 µg/mL

CC(C)=CC1Oc2cc(O)ccc2-c2oc3cc(O)c(C=CC(C)C)c(O)c3c(=O)c21 (centres unmarked) [Compound 5-1, 6H,7H-[1]benzopyrano[4,3-b][1]benzopyran-7-one,3,8,10-trihydroxy-9-(3-methyl-1-butenyl)-6-(2-methyl-1-propenyl)]
Resistance overcoming effect EC50 (A549/SN-38-4 cell line): 0.18 µg/mL
